Data as given in US10604476B2, “Fluorinated amide derivatives and their uses as therapeutic agents” (Trillium Therapeutics Inc., priority 2015, dated 2020).

Columns and labels:
[1] = test system: fully kindled (stage 5) seizures, amygdala kindled rat; experiment: Amygdala kindled rat model; assay type: in vivo; conditions: <60 mg/kg i.p.
From the text: Amygdala kindling model is an animal model for complex partial seizures, which is the most common type of epilepsy in adults and is often drug resistant.

audiogenic seizure (AGS) = experiment: Frings AGS-susceptible mouse model; assay type: in vivo; conditions: ip, read-out: ED50, block of AGS
From the text: Frings audiogenic seizure (AGS)-susceptible mice model examines the ability of an investigational drug to alter the onset and/or severity of seizures in a genetic mouse model of seizure susceptibility. Mice are genetically susceptible to sound-induced reflex seizures. Their seizure phenotype is characterized by wild running, loss of righting reflex, tonic flexion, and tonic extension in response to high-intensity sound stimulation. […] For example, the prototypical anticonvulsants phenytoin and ethosuximide display widely divergent clinical spectrums in humans, but are both active against sound-induced seizures in mice. Yet, the preclinical utility of this animal model rests in the useful information that can be obtained within a genetically susceptible model of seizures. Further, efficacy in this model provides proof of concept of brain bioavailability following systemic administration. […] At the time of peak effect as determined in the MES test (Test 4 in CF1 mice), individual mice are placed in a round plexiglass jar (diameter, 15 cm; height, 18 cm) and exposed to a sound stimulus of 110 decibels (11 KHz) delivered for 20 sec. […] The severity of a seizure may also be quantitated by assigning a numerical score to the observed response, e.g. no response—0; wild running for <10 sec—1; wild running for >10 sec—2; clonic seizure—3; forelimb extension/hind limb flexion—4; tonic seizure—5.

mechanical allodynia [2] = experiment: Spinal nerve injury (SNI) model, Von Frey test; assay type: in vivo, rat; conditions: 60 mg/kg i.p.
From the text: The SNI model of neuropathic pain was developed in rats using the procedure described by Decostered and Woolf, Pain 2000, 87: 149-158. Under isoflurane anesthesia, the skin on the lateral surface of the thigh was incised and a section was made directly through the biceps femoris muscle exposing the sciatic nerve and its three terminal branches: the sural, common peroneal and tibial nerves. The common peroneal and the tibial nerves were tight-ligated with 6-0 suture and sectioned distal to the ligation, removing 2-4 mm of the distal nerve stump. Extreme care was taken to avoid any contact with or stretching of the intact sural nerve. Following surgery, hemostasis was confirmed and the muscles were sutured in layers using 4-0 suture and the skin was closed with 4-0 suture and metal clips. Male, Sprague-Dawley rats were used. Testing of compounds was done 21 days post-operatively. After initial basal readings were taken, the test compound or vehicle was administered. The readings were taken again 30, 60 and 180 min after the compound/vehicle administration. Both the control (uninjured) and the SNI paw were tested. The presence of mechanical allodynia was assessed using the Dynamic Plantar Aesthesiometer (Ugo Basile, Italy) which is a modified version of the Von Frey Hair test. […] A single reading was taken per time point. […]

mechanical allodynia [3] = experiment: Sciatic ligation model in rats (neuropathic pain); assay type: in vivo, rat; conditions: 23 mg/kg i.p.
From the text: Animals will be anesthetized with sodium pentobarbital and the depth of anesthesia monitored by their response to a tail pinch and observation of the depth of respiration. Sterile technique will be used throughout the surgery. The upper thigh will be shaved and wiped off with ethanol and betadine. A small incision will then be made in the skin. The underlying muscle of the upper thigh will be separated and the sciatic nerve exposed. The nerve is separated from the surrounding connective tissue and slightly elevated by a pair of fine, curved forceps. Approximately ⅓ to ½ of the nerve is tied off by passing a needle (7.0) and nylon suture through the nerve. The muscle and skin incision are closed off separately with 5.0 suture and the animals kept warm until they have recovered from the anesthesia. […] The rats will be closely monitored daily for the development of infection or untoward effects of the surgery in which case the animals will be immediately euthanized. […] After 30-60 minutes in which to acclimate, a baseline mechanical sensitivity is determined. […] This is repeated until a 50% threshold for withdrawal can be determined. […] Testing will be conducted at the time-to-peak effect of the AED as determined in the acute seizure model (Z. Seltzer et al. Pain 43 1990, 205-218).

| Structure (SMILES) | suppression of fully kindled (stage 5) seizures compared to vehicle controls [1] | ED50 (audiogenic seizure (AGS)) | mechanical allodynia in the denervated paw, Von Frey test (mechanical allodynia [2]) | mechanical allodynia compared to vehicle controls (mechanical allodynia [3]) |
| --- | --- | --- | --- | --- |
| C[C@@H](Oc1cc(Cl)cc(C(F)(F)F)c1)C(N)=O [I(D), (2R)-2-[3-chloro-5-(trifluoromethyl)-phenoxy]propanamide] | dose related suppression | 28.9 ± 3.08 mg/kg |  |  |
| NC(=O)COc1cc(C(F)(F)F)cc(C(F)(F)F)c1 [I(F), 2-[3,5 bis(trifluoromethyl)-phenoxy]acetamide;] |  |  | effective | significant decrease |
